{
  "source": "paper PMC4907197",
  "about": "(Applied and Environmental Microbiology, 2016)",
  "key": {"KES23460": {"biological_target": "T1, KES23460 (Pseudomonas sp. AAC, UniProt A0ABD3YRH9)", "T1 construct": "gene FG99_15390", "T1 sequence (A0ABD3YRH9 1-498)": "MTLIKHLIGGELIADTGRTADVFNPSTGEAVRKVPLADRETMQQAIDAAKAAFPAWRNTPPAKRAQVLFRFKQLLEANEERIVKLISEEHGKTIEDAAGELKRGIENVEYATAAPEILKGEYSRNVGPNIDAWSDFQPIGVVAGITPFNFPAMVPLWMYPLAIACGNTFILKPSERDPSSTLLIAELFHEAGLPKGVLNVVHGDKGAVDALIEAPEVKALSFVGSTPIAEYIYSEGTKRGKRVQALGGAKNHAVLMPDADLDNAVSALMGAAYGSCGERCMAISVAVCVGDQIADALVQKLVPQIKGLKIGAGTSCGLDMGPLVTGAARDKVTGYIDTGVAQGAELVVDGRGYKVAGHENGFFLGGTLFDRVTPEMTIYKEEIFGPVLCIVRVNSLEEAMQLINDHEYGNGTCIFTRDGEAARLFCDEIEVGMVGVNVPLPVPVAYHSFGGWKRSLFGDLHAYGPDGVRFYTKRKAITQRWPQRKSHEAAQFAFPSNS", "test": "KES23458-coupled NADH formation, A340", "type": "biochemical", "conditions": "NAD, pH […]"}, "KES23458": {"biological_target": "T2, KES23458 (Pseudomonas sp. AAC, UniProt Z9SKW1E3X5)", "T2 construct": "full length minus N-terminal Met by mass spectrometry; homodimer; phospho-His31 and phospho-His360 observed; deconvoluted MS peak 50,399 (reduced with PLP)", "T2 sequence (Z9SKW1E3X5 22-468)": "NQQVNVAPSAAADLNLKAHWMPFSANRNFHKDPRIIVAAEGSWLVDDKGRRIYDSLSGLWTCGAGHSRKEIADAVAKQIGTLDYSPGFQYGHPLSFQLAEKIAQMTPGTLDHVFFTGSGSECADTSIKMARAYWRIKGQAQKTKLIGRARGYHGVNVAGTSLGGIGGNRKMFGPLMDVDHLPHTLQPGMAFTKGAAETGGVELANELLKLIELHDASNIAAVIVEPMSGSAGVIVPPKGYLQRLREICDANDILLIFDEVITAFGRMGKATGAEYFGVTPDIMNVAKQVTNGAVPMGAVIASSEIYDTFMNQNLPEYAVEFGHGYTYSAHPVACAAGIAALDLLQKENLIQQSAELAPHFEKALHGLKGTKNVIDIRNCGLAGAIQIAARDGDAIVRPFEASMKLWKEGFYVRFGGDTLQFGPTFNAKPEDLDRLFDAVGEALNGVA", "test": "X-ray crystallography; mass spectrometry", "type": "binding", "conditions": "crystal density atypical of PLP (PLP'), no aldimine seen; MS shows aldimine-bound unmodified PLP; covalent (Lys288 presumed); native structure 1.24 Å"}},
  "data": [
    {"smiles": "CC(C)(COP(=O)(O)OP(=O)(O)OC[C@H]1O[C@@H](n2cnc3c(N)ncnc32)[C@H](O)[C@@H]1OP(=O)(O)O)[C@@H](O)C(=O)NCCC(=O)NCCS", "note": "[CoA]", "values": [
      {"measurement": "KES23458-coupled NADH formation, A340", "setting": "KES23460; co-substrate malonate semialdehyde formed in situ", "result": "In the presence of CoA, the transthioesterification step was observed to be significantly faster"}
    ]},
    {"smiles": "O=CCC(=O)O", "note": "[malonic acid semialdehyde]", "values": [
      {"measurement": "KES23458-coupled NADH formation, A340", "setting": "KES23460; formed in situ from […] beta-alanine and pyruvate by KES23458, with or without CoA", "result": "significant activity with only one of the substrates tested, malonic acid semialdehyde"}
    ]},
    {"smiles": "Cc1ncc(COP(=O)(O)O)c(C=O)c1O", "note": "[PLP]", "values": [
      {"measurement": "X-ray crystallography; mass spectrometry", "setting": "KES23458", "result": "with the mass gain corresponding to aldimine-bound unmodified PLP"}
    ]}
  ]
}
